Laboratory results reported in patent publication US20260365628A1, “SUBSTITUTED 3,4-DIHYDROQUINOLINONE INHIBITORS OF TSHR” (Septerna, Inc., priority 2022, published 2026).

Biological target: T1, hTSHR (Homo sapiens, UniProt P16473)
T1 construct: expressed in transfected cells
Assay: hTSHR TR-FRET cAMP Assay (inhibition of M22-stimulated cAMP production)
Type: cell-based
Conditions: Expi293F Inducible cells stably expressing hTSHR; cAMP HTRF; stimulated with EC80 of anti-TSHR antibody M22; 15 min compound preincubation, 30 min at 37° C.; read-out: Activity (IC50 bins)
Method in brief: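 Readout was a cAMP HTRF ratio of 655/620 nm after lysis, scaled between the EC80 M22 signal (0% inhibition) and no-agonist vehicle (100%). Frozen induced Expi293F-hTSHR cells saw test compounds (0.5% DMSO) for 15 min at 37 °C before 30 min of M22 stimulation at EC80.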

T1 sequence (P16473 21-764): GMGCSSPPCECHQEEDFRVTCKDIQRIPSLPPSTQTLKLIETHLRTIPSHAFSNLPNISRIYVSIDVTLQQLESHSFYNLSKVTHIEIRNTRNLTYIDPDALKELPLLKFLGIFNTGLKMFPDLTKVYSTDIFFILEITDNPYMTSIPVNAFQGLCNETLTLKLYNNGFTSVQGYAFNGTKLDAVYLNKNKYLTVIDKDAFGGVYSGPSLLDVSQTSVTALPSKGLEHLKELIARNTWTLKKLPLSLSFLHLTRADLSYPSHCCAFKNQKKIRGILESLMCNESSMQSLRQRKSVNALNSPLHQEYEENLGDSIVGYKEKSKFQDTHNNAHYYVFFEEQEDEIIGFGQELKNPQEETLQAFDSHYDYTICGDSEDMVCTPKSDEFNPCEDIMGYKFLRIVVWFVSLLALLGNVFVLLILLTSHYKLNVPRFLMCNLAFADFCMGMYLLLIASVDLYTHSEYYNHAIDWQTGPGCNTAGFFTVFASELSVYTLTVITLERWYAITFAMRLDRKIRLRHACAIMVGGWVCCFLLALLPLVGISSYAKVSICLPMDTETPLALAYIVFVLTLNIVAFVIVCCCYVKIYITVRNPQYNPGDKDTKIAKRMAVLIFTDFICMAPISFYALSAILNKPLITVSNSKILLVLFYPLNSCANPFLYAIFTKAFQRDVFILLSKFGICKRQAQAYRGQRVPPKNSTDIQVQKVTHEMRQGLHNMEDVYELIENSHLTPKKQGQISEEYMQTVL

IC50	Structure (SMILES)
> 1000 nM	C[C@@H](c1cccc(CCN(C)C(=O)C(C)(C)O)c1)n1c(=O)cnc2cc(NC(=O)NC(C)(C)C)ccc21 [Example 120, (S)-N-(3-(1-(6-(3-(tert-butyl)ureido)-2-oxoquinoxalin-1 (2H)-yl)ethyl)phenethyl)-2-hydroxy-N,2-dimethylpropanamide]
> 1000 nM	C[C@@H](c1cccc(CCOCC(C)(C)O)c1)n1c(=O)cnc2cc(NC(=O)NC(C)(C)C)ccc21 [Example 121, (S)-1-(tert-butyl)-3-(1-(1-(3-(2-(2-hydroxy-2-methylpropoxy)ethyl)phenyl)ethyl)-2-oxo-1,2-dihydroquinoxalin-6-yl)urea]
100 to 1000 nM	C[C@@H](c1cccc(C(F)F)c1)n1c(=O)cnc2cc(NC(=O)NC(C)(C)C)ccc21 [Example 122, (S)-1-(tert-butyl)-3-(1-(1-(3-(difluoro-methyl)phenyl)ethyl)-2-oxo-1,2-dihydroquinoxalin-6-yl)urea]
100 to 1000 nM	C[C@@H](c1cccc2c1COCC2)n1c(=O)cnc2cc(NC(=O)NC(C)(C)C)ccc21 [Example 123, (S)-1-(tert-butyl)-3-(1-(1-(isochroman-8-yl)ethyl)-2-oxo-1,2-dihydroquinoxalin-6-yl)urea]
> 1000 nM	C[C@@H](c1cccc2c1CCOC2)n1c(=O)cnc2cc(NC(=O)NC(C)(C)C)ccc21 [Example 124, (S)-1-(tert-butyl)-3-(1-(1-(isochroman-5-yl)ethyl)-2-oxo-1,2-dihydroquinoxalin-6-yl)urea]
100 to 1000 nM	C[C@@H](c1cccc2c1CCC2)n1c(=O)cnc2cc(NC(=O)NC(C)(C)C)ccc21 [Example 125, (S)-1-(tert-butyl)-3-(1-(1-(2,3-dihydro-1H-inden-4-yl)ethyl)-2-oxo-1,2-dihydroquinoxalin-6-yl)urea]
> 1000 nM	C[C@@H](c1cccc2ccncc12)n1c(=O)cnc2cc(NC(=O)NC(C)(C)C)ccc21 [Example 126, (S)-1-(tert-butyl)-3-(1-(1-(isoquinolin-8-yl)ethyl)-2-oxo-1,2-dihydroquinoxalin-6-yl)urea]
100 to 1000 nM	C[C@@H](c1cccc(N2CCCCC2)c1)n1c(=O)cnc2cc(NC(=O)NC(C)(C)C)ccc21 [Example 127, (S)-1-(tert-butyl)-3-(2-oxo-1-(1-(3-(piperidin-1-yl)phenyl)ethyl)-1,2-dihydroquinoxalin-6-yl)urea]
100 to 1000 nM	C[C@@H](c1cccc(OC(F)F)c1)n1c(=O)cnc2cc(NC(=O)NC(C)(C)C)ccc21 [Example 128, (S)-1-(tert-butyl)-3-(1-(1-(3-(difluoromethoxy)phe-nyl)ethyl)-2-oxo-1,2-dihydroquinoxalin-6-yl)urea]
> 1000 nM	C[C@@H](c1cc(OC(F)(F)F)ccn1)n1c(=O)cnc2cc(NC(=O)NC(C)(C)C)ccc21 [Example 129, (S)-1-(tert-butyl)-3-(2-oxo-1-(1-(4-(trifluoromethoxy)pyri-din-2-yl)ethyl)-1,2-dihydroquinoxalin-6-yl)urea]
100 to 1000 nM	C[C@@H](c1cc(Cl)ccc1Cl)n1c(=O)cnc2cc(NC(=O)NC(C)(C)C)ccc21 [Example 130, (S)-1-(tert-butyl)-3-(1-(1-(2,5-dichlorophenyl)ethyl)-2-oxo-1,2-dihydroquinoxalin-6-yl)urea]
< 100 nM	C[C@@H](c1cccc(Cl)c1)n1c(=O)cnc2cc(NC(=O)NC(C)(C)C)ccc21 [Example 131, (S)-1-(tert-butyl)-3-(1-(1-(3-chlorophenyl)ethyl)-2-oxo-1,2-dihydroquinoxalin-6-yl)urea]
100 to 1000 nM	Cc1cccc([C@H](C)n2c(=O)cnc3cc(NC(=O)NC(C)(C)C)ccc32)c1 [Example 132, (S)-1-(tert-butyl)-3-(2-oxo-1-(1-(m-tolyl)ethyl)-1,2-dihydroquinoxalin-6-yl)urea]
100 to 1000 nM	C[C@@H](c1ccc(Cl)c(Cl)c1)n1c(=O)cnc2cc(NC(=O)NC(C)(C)C)ccc21 [Example 133, (S)-1-(tert-butyl)-3-(1-(1-(3,4-dichlorophenyl)ethyl)-2-oxo-1,2-dihydroquinoxalin-6-yl)urea]
